Test results taken from patent publication US20240060999A1, “BLOOD COAGULATION INSPECTION METHOD” (FUJIMORI KOGYO CO., LTD, priority 2020, published 2024).

Test system: whole blood
Experiment: ROTEM whole blood coagulation with rabbit brain-derived tissue thromboplastin (TP) + Ca 12 mM (CTI 20 μg/mL, PKSI-527 40 μM where stated)
Type: cell-based
Details: for prolongation of blood clotting time with rTM by addition of heparan sulfate: reagents (1)-(4), all conditions, heparan sulfate 1 μg/mL
[1] = Ex15, TP 0.033 μg/mL+Ca+CTI+PKSI-527, heparan sulfate 0.3 μg/mL, no rTM
[2] = Ex15, TP 0.033 μg/mL+Ca+CTI+PKSI-527, heparan sulfate 0.3 μg/mL, rTM 5 nM
[3] = Ex15, TP 0.033 μg/mL+Ca+CTI+PKSI-527, heparan sulfate 0.4 μg/mL, no rTM
[4] = Ex15, TP 0.033 μg/mL+Ca+CTI+PKSI-527, heparan sulfate 0.4 μg/mL, rTM 5 nM
[5] = Ex15, TP 0.033 μg/mL+Ca+CTI+PKSI-527, heparan sulfate 0.5 μg/mL, no rTM
[6] = Ex15, TP 0.033 μg/mL+Ca+CTI+PKSI-527, heparan sulfate 0.5 μg/mL, rTM 5 nM
[7] = Ex17, TP 0.011 μg/mL+Ca+CTI+PKSI-527, heparan sulfate 0.2 μg/mL, no rTM
[8] = Ex17, TP 0.011 μg/mL+Ca+CTI+PKSI-527, heparan sulfate 0.2 μg/mL, rTM 10 nM
[9] = Ex17, TP 0.011 μg/mL+Ca+CTI+PKSI-527, heparan sulfate 0.3 μg/mL, no rTM
[10] = Ex17, TP 0.011 μg/mL+Ca+CTI+PKSI-527, heparan sulfate 0.3 μg/mL, rTM 10 nM
[11] = Ex17, TP 0.011 μg/mL+Ca+CTI+PKSI-527, heparan sulfate 0.5 μg/mL, no rTM
[12] = Ex17, TP 0.011 μg/mL+Ca+CTI+PKSI-527, heparan sulfate 0.5 μg/mL, rTM 10 nM
[13] = Ex18, TP 0.0166 μg/mL+Ca+CTI+PKSI-527, heparan sulfate 0.3 μg/mL, no rTM
[14] = Ex18, TP 0.0166 μg/mL+Ca+CTI+PKSI-527, heparan sulfate 0.3 μg/mL, rTM 10 nM
[15] = Ex18, TP 0.0166 μg/mL+Ca+CTI+PKSI-527, heparan sulfate 0.5 μg/mL, no rTM
[16] = Ex18, TP 0.0166 μg/mL+Ca+CTI+PKSI-527, heparan sulfate 0.5 μg/mL, rTM 10 nM
[17] = Ex18, TP 0.0166 μg/mL+Ca+CTI+PKSI-527, heparan sulfate 1.0 μg/mL, no rTM
[18] = Ex18, TP 0.0166 μg/mL+Ca+CTI+PKSI-527, heparan sulfate 1.0 μg/mL, rTM 10 nM

Substance: Heparan sulfate
- CT (clotting time) (Ex15, TP 0.033 μg/mL+Ca+CTI+PKSI-527, heparan sulfate 0.2 μg/mL, rTM 5 nM): 749 s
- CFT (clot formation time) [1]: 171 s
- CT (clotting time) [1]: 688 s
- CFT (clot formation time) [2]: 251 s
- CT (clotting time) [2]: 825 s
- CFT (clot formation time) [3]: 206 s
- CT (clotting time) [3]: 762 s
- CFT (clot formation time) [4]: 334 s
- CT (clotting time) [4]: 955 s
- CFT (clot formation time) [5]: 248 s
- CT (clotting time) [5]: 837 s
- CFT (clot formation time) [6]: 407 s
- CT (clotting time) [6]: 995 s
- blood clotting time (Ex17, TP 0.011 μg/mL+Ca+CTI+PKSI-527, heparan sulfate 0.2 μg/mL or more, rTM 10 nM): ≥ 1 h
- CFT (clot formation time) [7]: 578 s
- CT (clotting time) [7]: 1408 s
- CFT (clot formation time) [8]: No CFT
- CT (clotting time) [8]: No CT
- CFT (clot formation time) [9]: 430 s
- CT (clotting time) [9]: 1630 s
- CFT (clot formation time) [10]: No CFT
- CT (clotting time) [10]: No CT
- CFT (clot formation time) [11]: 386 s
- CT (clotting time) [11]: 1178 s
- CFT (clot formation time) [12]: No CFT
- CT (clotting time) [12]: No CT
- CFT (clot formation time) [13]: 256 s
- CT (clotting time) [13]: 1035 s
- CFT (clot formation time) [14]: 292.0 s
- CT (clotting time) [14]: 904 s
- CFT (clot formation time) [15]: 407 s
- CT (clotting time) [15]: 1162 s
- CFT (clot formation time) [16]: 742.0 s
- CT (clotting time) [16]: 1064 s
- CFT (clot formation time) [17]: No CT
- CT (clotting time) [17]: 1999 s
- CFT (clot formation time) [18]: No CFT
- CT (clotting time) [18]: No CT
- blood clotting time [18]: ≥ 1 h
- CT (clotting time) (Ex30, reagent (1): TP 0.664 μg/mL+heparan sulfate 1 μg/mL+Ca, no rTM): 220 s
- CT (clotting time) (Ex30, reagent (1): TP 0.664 μg/mL+heparan sulfate 1 μg/mL+Ca, rTM 25 nM): 533 s
- CT (clotting time) (Ex30, reagent (1): TP 0.664 μg/mL+heparan sulfate 1 μg/mL+Ca, rTM 25 nM+APC inhibitory aptamer 1 μM): 260 s
- CT (clotting time) (Ex30, reagent (2): TP 0.664 μg/mL+heparan sulfate 1 μg/mL+Ca+CTI, no rTM): 214 s
- CT (clotting time) (Ex30, reagent (2): TP 0.664 μg/mL+heparan sulfate 1 μg/mL+Ca+CTI, rTM 25 nM): 448 s
- CT (clotting time) (Ex30, reagent (2): TP 0.664 μg/mL+heparan sulfate 1 μg/mL+Ca+CTI, rTM 25 nM+APC inhibitory aptamer 1 μM): 287 s
- CT (clotting time) (Ex30, reagent (3): TP 0.664 μg/mL+heparan sulfate 1 μg/mL+Ca+PKSI-527, no rTM): 220 s
- CT (clotting time) (Ex30, reagent (3): TP 0.664 μg/mL+heparan sulfate 1 μg/mL+Ca+PKSI-527, rTM 25 nM): 444 s
- CT (clotting time) (Ex30, reagent (3): TP 0.664 μg/mL+heparan sulfate 1 μg/mL+Ca+PKSI-527, rTM 25 nM+APC inhibitory aptamer 1 μM): 291 s
- CT (clotting time) (Ex30, reagent (4): TP 0.664 μg/mL+heparan sulfate 1 μg/mL+Ca+CTI+PKSI-527, no rTM): 226 s
- CT (clotting time) (Ex30, reagent (4): TP 0.664 μg/mL+heparan sulfate 1 μg/mL+Ca+CTI+PKSI-527, rTM 25 nM): 440 s
- CT (clotting time) (Ex30, reagent (4): TP 0.664 μg/mL+heparan sulfate 1 μg/mL+Ca+CTI+PKSI-527, rTM 25 nM+APC inhibitory aptamer 1 μM): 319 s
- prolongation of blood clotting time with rTM by addition of heparan sulfate (Ex30, rTM 25 nM): markedly prolonged
- CT (clotting time) (Ex31, reagent (1): TP 0.664 μg/mL+heparan sulfate 1 μg/mL+Ca, no rTM): 220 s
- CT (clotting time) (Ex31, reagent (1): TP 0.664 μg/mL+heparan sulfate 1 μg/mL+Ca, rTM 30 nM): 766 s
- CT (clotting time) (Ex31, reagent (1): TP 0.664 μg/mL+heparan sulfate 1 μg/mL+Ca, rTM 30 nM+APC inhibitory aptamer 1 μM): 301 s
- CT (clotting time) (Ex31, reagent (2): TP 0.664 μg/mL+heparan sulfate 1 μg/mL+Ca+CTI, no rTM): 214 s
- CT (clotting time) (Ex31, reagent (2): TP 0.664 μg/mL+heparan sulfate 1 μg/mL+Ca+CTI, rTM 30 nM): 613 s
- CT (clotting time) (Ex31, reagent (2): TP 0.664 μg/mL+heparan sulfate 1 μg/mL+Ca+CTI, rTM 30 nM+APC inhibitory aptamer 1 μM): 286 s
- CT (clotting time) (Ex31, reagent (3): TP 0.664 μg/mL+heparan sulfate 1 μg/mL+Ca+PKSI-527, no rTM): 220 s
- CT (clotting time) (Ex31, reagent (3): TP 0.664 μg/mL+heparan sulfate 1 μg/mL+Ca+PKSI-527, rTM 30 nM): 517 s
- CT (clotting time) (Ex31, reagent (3): TP 0.664 μg/mL+heparan sulfate 1 μg/mL+Ca+PKSI-527, rTM 30 nM+APC inhibitory aptamer 1 μM): 297 s
- CT (clotting time) (Ex31, reagent (4): TP 0.664 μg/mL+heparan sulfate 1 μg/mL+Ca+CTI+PKSI-527, no rTM): 226 s
- CT (clotting time) (Ex31, reagent (4): TP 0.664 μg/mL+heparan sulfate 1 μg/mL+Ca+CTI+PKSI-527, rTM 30 nM): 557 s
- CT (clotting time) (Ex31, reagent (4): TP 0.664 μg/mL+heparan sulfate 1 μg/mL+Ca+CTI+PKSI-527, rTM 30 nM+APC inhibitory aptamer 1 μM): 307 s
- prolongation of blood clotting time with rTM by addition of heparan sulfate (Ex31, rTM 30 nM): markedly prolonged
